Reference: US9487476B2, “Catechol diethers as potent anti-HIV agents” (priority 2011, dated 2016)
pEC50: −log10 of the molar value. Like-named read-outs stand apart in the source and are kept apart here.

How the values were obtained:
Format in all cases: cell-based
WT HIV-1 (IIIB strain) = test: Anti-HIV-1 activity, protection of infected MT-2 cells (MTT)
[1] = system: HIV-1 variant containing the Y181C (Tyr181Cys) mutation; test: Anti-HIV-1 activity against variant strain in MT-2 cells (MTT); settings: Human immunodeficiency virus 1, MT2, read-out: EC50 Y181C
[2] = system: HIV-1 variant containing the K103N/Y181C mutations; test: Anti-HIV-1 activity against double-mutant strain in MT-2 cells (MTT); settings: Human immunodeficiency virus 1, MT2, read-out: EC50 K103N/Y181C
MT-2 human T-cells = test: Cytotoxicity, inhibition of MT-2 cell growth
[3] = Human immunodeficiency virus 1, IIIB, MT2, running text, read-out: EC50 against WT HIV-1
[4] = Table 4, catechol diether derivatives, MT-2 cells, read-out: Anti-HIV-1 Activity (EC50)

| SMILES | pEC50 (WT HIV-1 (IIIB strain); [3]) | CC50 (MT-2 human T-cells; human) [µM] | further results |
| --- | --- | --- | --- |
| N#Cc1cc(Cl)cc(Oc2ccc(Cl)cc2OCCn2ccc(=O)[nH]c2=O)c1 [Compound 25, 3-chloro-5-(4-chloro-2-(2-(2,4-dioxo-3,4-dihydropyrimidin-1(2H)-yl)ethoxy)phenoxy)benzonitrile] | 7.85 | > 100 | pEC50 [1]: 6.28; pEC50 [2]: 5.77; cytotoxicity, limit of the tested concentration range (MT-2 human T-cells; human): > 100 µM |
| Cc1ccc(OCCn2ccc(=O)[nH]c2=O)c(Cc2ccccc2)c1 [Compound 1, 1-(2-(2-benzyl-4-methylphenoxy)ethyl)pyrimidine-2,4(1H,3H)-dione] | 5.30 |  |  |
| COCCOc1cccc(Oc2ccc(C#N)cc2OCCn2ccc(=O)[nH]c2=O)c1 [Compound 46, 3-(2-(2,4-dioxo-3,4-dihydropyrimidin-1(2H)-yl)ethoxy)-4-(3-(2-methoxyethoxy)phenoxy)benzonitrile] | 6.27 | > 100 |  |
| N#Cc1ccc(Oc2cccc(OCCCO)c2)c(OCCn2ccc(=O)[nH]c2=O)c1 [Compound 47, 3-(2-(2,4-dioxo-3,4-dihydropyrimidin-1(2H)-yl)ethoxy)-4-(3-(3-hydroxypropoxy)phenoxy)benzonitrile] | 5.74 | > 100 |  |
| O=c1ccn(CCOc2cc(Cl)cc(Cl)c2Oc2ccccc2Cl)c(=O)[nH]1 [Compound 45, 1-(2-(3,5-dichloro-2-(2-chlorophenoxy)phenoxy)ethyl)pyrimidine-2,4(1H,3H)-dione] | 6.08 | 13 |  |
| N#Cc1ccc(Oc2ccccc2Cl)c(OCCn2ccc(=O)[nH]c2=O)c1 [Compound 30, 4-(2-chlorophenoxy)-3-(2-(2,4-dioxo-3,4-dihydropyrimidin-1(2H)-yl)ethoxy)benzonitrile] | 6.57 | > 100 |  |
| N#C/C=C/c1cc(F)cc(Oc2ccc(Br)cc2OCCn2ccc(=O)[nH]c2=O)c1 [JLJ511] |  |  | pEC50 (WT HIV-1 (IIIB strain); [4]): 8.74; CC50 (MT-2 human T-cells): 15 µM |
| N#C/C=C/c1cc(F)cc(Oc2ccc(OCCN3CCOCC3)cc2OCCn2ccc(=O)[nH]c2=O)c1 [JLJ526] |  |  | pEC50 (WT HIV-1 (IIIB strain); [4]): 6.28; CC50 (MT-2 human T-cells): 27 µM |
| N#Cc1cc(C#N)cc(Oc2cc(Cl)ccc2OCCn2ccc(=O)[nH]c2=O)c1 [Compound 20, 5-(5-chloro-2-(2-(2,4-dioxo-3,4-dihydropyrimidin-1(2H)-yl)ethoxy)phenoxy)isophthalonitrile] |  |  | pEC50 [1]: 4.68; pEC50 [2]: 5.66 |
| O=c1ccn(CCOc2ccc(Cl)cc2Cc2ccccc2Cl)c(=O)[nH]1 [Compound 6, 1-(2-(4-chloro-2-(2-chlorobenzyl)phenoxy)ethyl)pyrimidine-2,4(1H,3H)-dione] |  | 28 |  |
| O=c1[nH]c(=O)n(CCOc2ccc(Cl)cc2Cc2ccccc2)cc1Cl [Compound 14, 1-(2-(2-benzyl-4-chlorophenoxy)ethyl)-5-chloropyrimidine-2,4(1H,3H)-dione] |  | 21 |  |
| N#Cc1ccc(Oc2cc(Cl)ccc2Cl)c(OCc2ccncc2)c1 [Compound 34] | 4.92 |  |  |
| O=c1ccn(CCOc2ccc(Cl)cc2Cc2cccc(Cl)c2)c(=O)[nH]1 [Compound 7, 1-(2-(4-chloro-2-(3-chlorobenzyl)phenoxy)ethyl)pyrimidine-2,4(1H,3H)-dione] |  | 11 |  |
| N#Cc1cc(Cl)cc(Oc2ccc(C#N)cc2OCCn2cc(Cl)c(=O)[nH]c2=O)c1 [Compound 29, 3-(2-(5-chloro-2,4-dioxo-3,4-dihydropyrimidin-1(2H)-yl)ethoxy)-4-(3-chloro-5-cyanophenoxy)benzonitrile] |  | 94 |  |
| O=c1ccn(CCOc2ccc(Cl)cc2Cc2ccccc2)c(=O)[nH]1 [Compound 5, 1-(2-(2-benzyl-4-chlorophenoxy)ethyl)pyrimidine-2,4(1H,3H)-dione] |  | 23 |  |
| N#Cc1cc(Cl)cc(Oc2ccc(Cl)cc2OCCn2cc(F)c(=O)[nH]c2=O)c1 [Compound 26, 3-chloro-5-(4-chloro-2-(2-(5-fluoro-2,4-dioxo-3,4-dihydropyrimidin-1(2H)-yl)ethoxy)phenoxy)benzonitrile] |  |  | pEC50 [1]: 6.21; pEC50 [2]: 5.77 |
| N#C/C=C/c1cccc(Oc2ccc(Cl)cc2OCCn2ccc(=O)[nH]c2=O)c1 [Compound 41, (E)-3-(3-(4-chloro-2-(2-(2,4-dioxo-3,4-dihydropyrimidin-1(2H)-yl)ethoxy)phenoxy)phenyl)acrylonitrile] | 8.30 |  | pEC50 [1]: 6.43; pEC50 [2]: 5.80 |
| N#C/C=C/c1cccc(Oc2ccc(C#N)cc2OCCn2ccc(=O)[nH]c2=O)c1 [Compound 40, (E)-4-(3-(2-cyanovinyl)phenoxy)-3-(2-(2,4-dioxo-3,4-dihydropyrimidin-1(2H)-yl)ethoxy)benzonitrile] | 7.82 |  | pEC50 [1]: 6.01; pEC50 [2]: 5.10 |
| Cc1cn(CCOc2ccc(Cl)cc2Cc2ccccc2)c(=O)[nH]c1=O [Compound 12, 1-(2-(2-benzyl-4-chlorophenoxy)ethyl)-5-methylpyrimidine-2,4(1H,3H)-dione] |  | 22 |  |
| N#Cc1cc(F)c(Oc2ccccc2Cl)c(OCCn2ccc(=O)[nH]c2=O)c1 [Compound 44, 4-(2-chlorophenoxy)-3-(2-(2,4-dioxo-3,4-dihydropyrimidin-1(2H)-yl)ethoxy)-5-fluorobenzonitrile] | 6.80 | > 100 |  |

| SMILES | pEC50 (WT HIV-1 (IIIB strain); [3]) | CC50 (MT-2 human T-cells; human) [µM] | further results |
| --- | --- | --- | --- |
| N#Cc1ccc(Oc2cc(Cl)cc(Cl)c2)c(OCCn2ccc(=O)[nH]c2=O)c1 [Compound 32, 4-(3,5-dichlorophenoxy)-3-(2-(2,4-dioxo-3,4-dihydropyrimidin-1(2H)-yl)ethoxy)benzonitrile] | 7.70 |  | pEC50 [1]: 6.10; pEC50 [2]: < 4.37 |
| N#Cc1ccc(Oc2cc(Cl)ccc2Cl)c(OCCn2ccc(=O)[nH]c2=O)c1 [Compound 31, 4-(2,5-dichlorophenoxy)-3-(2-(2,4-dioxo-3,4-dihydropyrimidin-1(2H)-yl)ethoxy)benzonitrile] | 7.37 |  | pEC50 [1]: 6.04; pEC50 [2]: 5.55 |
| N#C/C=C/c1cc(Cl)cc(Oc2ccc(OCCN3CCOCC3)cc2OCCn2ccc(=O)[nH]c2=O)c1 [JLJ530] |  |  | pEC50 (WT HIV-1 (IIIB strain); [4]): 5.96; CC50 (MT-2 human T-cells): 100 µM |
| COc1cc(Cl)ccc1Oc1cc(Cl)cc(C#N)c1 [Compound 36, 3-chloro-5-(4-chloro-2-methoxyphenoxy)benzonitrile] | 5.00 |  |  |
| N#Cc1cccc(Cl)c1Oc1cc(Cl)ccc1OCCn1ccc(=O)[nH]c1=O [Compound 21, 3-chloro-2-(5-chloro-2-(2-(2,4-dioxo-3,4-dihydropyrimidin-1(2H)-yl)ethoxy)phenoxy)benzonitrile] |  | 50 |  |
| O=c1ccn(CCOc2ccc(Cl)cc2Cc2cc(Cl)ccc2Cl)c(=O)[nH]1 [Compound 10, 1-(2-(4-chloro-2-(2,5-dichlorobenzyl)phenoxy)ethyl)pyrimidine-2,4(1H,3H)-dione] |  | 15 |  |
| N#C/C=C/c1cc(Cl)cc(Oc2ccc(Br)cc2OCCn2ccc(=O)[nH]c2=O)c1 [JLJ531] |  |  | pEC50 (WT HIV-1 (IIIB strain); [4]): 8.04; CC50 (MT-2 human T-cells): 13 µM |
| O=c1ccn(CCOc2ccc(Cl)cc2Cc2ccc(Cl)cc2Cl)c(=O)[nH]1 [Compound 8, 1-(2-(4-chloro-2-(2,4-dichlorobenzyl)phenoxy)ethyl)pyrimidine-2,4(1H,3H)-dione] |  | 88 |  |
| O=c1ccn(CCOc2cc(Cl)ccc2Cc2ccccc2Cl)c(=O)[nH]1 [Compound 15, 1-(2-(5-chloro-2-(2-chlorobenzyl)phenoxy)ethyl)pyrimidine-2,4(1H,3H)-dione] |  | 12 |  |
| O=c1[nH]c(=O)n(CCOc2ccc(Cl)cc2Cc2ccccc2)cc1F [Compound 13, 1-(2-(2-benzyl-4-chlorophenoxy)ethyl)-5-fluoropyrimidine-2,4(1H,3H)-dione] |  | 27 |  |
| N#Cc1ccc(Cl)c(Oc2ccc(Cl)cc2OCCn2ccc(=O)[nH]c2=O)c1 [Compound 23, 4-chloro-3-(4-chloro-2-(2-(2,4-dioxo-3,4-dihydropyrimidin-1(2H)-yl)ethoxy)phenoxy)benzonitrile] |  | 60 |  |
| N#Cc1cc(C#N)cc(Oc2ccc(Cl)cc2OCCn2ccc(=O)[nH]c2=O)c1 [Compound 24, 5-(4-chloro-2-(2-(2,4-dioxo-3,4-dihydropyrimidin-1(2H)-yl)ethoxy)phenoxy)isophthalonitrile] |  | > 100 |  |
| N#Cc1cc(Cl)cc(Oc2ccc(C#N)cc2OCCn2ccc(=O)[nH]c2=O)c1 [Compound 28, 4-(3-chloro-5-cyanophenoxy)-3-(2-(2,4-dioxo-3,4-dihydropyrimidin-1(2H)-yl)ethoxy)benzonitrile] |  | > 100 |  |
| N#C/C=C/c1cc(Br)cc(Oc2ccc(Cl)cc2OCCn2ccc(=O)[nH]c2=O)c1 [JLJ518] |  |  | pEC50 (WT HIV-1 (IIIB strain); [4]): 8.28; CC50 (MT-2 human T-cells): 80 µM |
| N#Cc1cc(Cl)cc(Oc2cc(Cl)ccc2OCCn2ccc(=O)[nH]c2=O)c1 [Compound 22, 3-chloro-5-(5-chloro-2-(2-(2,4-dioxo-3,4-dihydropyrimidin-1(2H)-yl)ethoxy)phenoxy)benzonitrile] |  |  | pEC50 [1]: 5.17; pEC50 [2]: 5.92 |
| N#Cc1ccc(Oc2cc(Cl)ccc2Cl)c(COCc2ccncc2)c1 [Compound 35, 4-(2,5-dichlorophenoxy)-3-((pyridin-4-ylmethoxy)methyl)benzonitrile] | 5.74 |  |  |
| N#Cc1ccc(Oc2cc(Cl)ccc2Cl)c(OCCc2ccncc2)c1 [Compound 33, 4-(2,5-dichlorophenoxy)-3-(2-(pyridin-4-yl)ethoxy)benzonitrile] | 6.12 |  |  |
| O=c1ccn(CCOc2ccc(Cl)cc2Cc2cc(Cl)cc(Cl)c2)c(=O)[nH]1 [Compound 9, 1-(2-(4-chloro-2-(3,5-dichlorobenzyl)phenoxy)ethyl)pyrimidine-2,4(1H,3H)-dione] |  | 10 |  |
| O=c1ccn(CCOc2ccc(Cl)cc2Cc2c(Cl)cccc2Cl)c(=O)[nH]1 [Compound 11, 1-(2-(4-chloro-2-(2,6-dichlorobenzyl)phenoxy)ethyl)pyrimidine-2,4(1H,3H)-dione] |  | 49 |  |
